Results published in patent US20260240841A1, “COMBINATION OF HPK1 INHIBITOR AND AXL INHIBITOR IN CANCER THERAPY” (BOARD OF REGENTS, THE UNIVERSITY OF TEXAS SYSTEM, priority 2023, published 2026).

What was measured:
[1] = system: pancreatic cancer; settings: Ludwig et al.; cited from earlier work
[2] = system: mouse PDAC models; settings: cited from earlier work
[3] = system: orthotopic KPC-Luc pancreatic tumors; test: Orthotopic KPC-Luc pancreatic cancer model treated with MRTX1133; format: in vivo, mouse; settings: for tumor weight: 25 mg/kg twice daily for ten days, weighed seven days after completion, FIG. 10
Procedure: (§1) For sub-cutaneous xenograft studies, the C57BL/6 female or male mice aged 5-7 weeks (Jackson Labs) were used. 1×10^6 KPC-Luc cells or 2×10^5 B16F10 melanoma cells were injected into the dorsal region of the wild type (WT) or HPK1-mice. Animals were imaged using the IVIS Spectrum, PerkinElmer and Bruker ICON MRI at 3 and 10 days after successful implantation of KPC-Luc cells. Only mice with similar tumor volume (~150 mm^3) were used for treatment studies. These experiments were randomized. […] Mice were euthanized for tumor collection once tumor volume was approximately ~1000 mm^3. For orthotopic studies, 0.5×10^6 KPC-Luc cells were implanted orthotopically into WT C57BL/6 mice and/or HPK1^−/− mice pancreas. Bioluminescence imaging with the IVIS Spectrum (Perkin Elmer) was performed after intraperitoneal injection of 1.5 mg of D-luciferin (PerkinElmer). After image acquisition, the Living Image 4.7 software (PerkinElmer) was used for analysis of images. Therapy was initiated at day 10 post tumor cell injection. All mice were sacrificed on Day 35 for survival study or otherwise labeled in the Figures.
(§2) To examine the effects of pharmacological inhibition of Axl, Kras, and HPK1 with or without Anti-41BB/CD137 on tumor growth, Axl inhibitor (Bemcentinib MedChem Express) was dosed at 10 mg/kg/day for intraperitoneal injection (IP). HPK1-IN-7 (HPK1 inhibitor #1 MedChem Express) was dosed at 20 mg/kg/day orally, GNE1858 (HPK1 inhibitor #2 MedChem Express) was dosed at 10 mg/kg/day orally. KRAS^G12D inhibitor (MRTX1133, MedChem Express) was dosed at 25 mg/Kg twice daily for intraperitoneal injection. Anti-41BB (clone LOB12.3, BioXCell, BE0169) antibody and its corresponding isotype IgG controls were intraperitoneally administered at 200 μg per injection for three times per week. The duration of treatment was 10 days. Tumor size was measured every other day using the methods as previously described.
To further evaluate the association, tumor size was determined in mice treated with MRTX1133. […]

[4] = system: orthotopic xenograft tumors of KPC-Luc cells; test: IVIS bioluminescence imaging of orthotopic KPC-Luc xenograft tumors treated with Axl inhibitor; format: in vivo, mouse; settings: imaged 17 days post implantation with KPC-Luc cells
Procedure: as §1, with “All mice were sacrificed on Day 35 for survival study or otherwise labeled in the Figures.” left out
To examine the effects of pharmacological inhibition of Axl, Kras, and HPK1 with or without Anti-41BB/CD137 on tumor growth, Axl inhibitor (Bemcentinib MedChem Express) was dosed at 10 mg/kg/day for intraperitoneal injection (IP). […] Tumor size was measured every other day using the methods as previously described. […]

[5] = system: KPC-Luc cells; test: KPC-Luc tumor growth in WT C57BL/6 mice under Axl inhibitor, HPK1 inhibitor, CD137 antibody and combinations; format: in vivo, mouse; settings: treated 10 days
Procedure: as §1
To examine the effects of pharmacological inhibition of Axl, Kras, and HPK1 with or without Anti-41BB/CD137 on tumor growth, Axl inhibitor (Bemcentinib MedChem Express) was dosed at 10 mg/kg/day for intraperitoneal injection (IP). HPK1-IN-7 (HPK1 inhibitor #1 MedChem Express) was dosed at 20 mg/kg/day orally, GNE1858 (HPK1 inhibitor #2 MedChem Express) was dosed at 10 mg/kg/day orally. […] Tumor size was measured every other day using the methods as previously described.
Tumors were grown in wild-type mice, and treatment was performed as described above. Following treatment, tumors were excised from the mice and both tumor volume and tumor weight were measured.
To further study the synergistic effects of the combination therapy, tumors were grown in wild-type mice and treatment was performed as described above. Following treatment, tumors were excised from the mice and tumor weight was evaluated. […]

[6] = system: orthotopic xenograft tumors of KPC-Luc cells; test: Multicolor flow cytometry of intra-tumoral hematopoietic cells from KPC-Luc xenograft tumors; format: in vivo, mouse
Procedure: For flow cytometry studies, orthotopic xenograft tumors of KPC-Luc cells from the HPK1−/− or wild type control were digested in digestion buffer (1 mg/mL collagenase IV and 10 U/mL DNase I in Dulbecco's Modified Eagle Medium (DMEM)) at 37° C. for 30 minutes. After thorough mixing, the samples were pushed through a 70-μm cell strainer and washed with 40 ml DMEM without fetal bovine serum (FBS), The digested cells were re-suspended in 37 % Percoll and overlaid on top of the same volume of 70% Percoll. After centrifugation at 800 g for 20 minutes with break off, the lymphocytes were isolated from the interface and rinsed with PBS. The cells were first stained by Zombie UV, followed by incubation in a cocktail comprising the following antibodies in cell staining buffer: anti-CD45, anti-CD38, anti-B220, anti-CD11b, anti-F4/80, anti-Ly6C, anti-Ly6G, anti-CD4, anti-IA/IE, and anti-CD8g. After washing, the stained cells were submitted for multiple-color flow cytometry. The results were processed using FlowJo software.
Following tumor xenograft imaging, the tumors were excised from the mice and subsequently prepared for flow cytometry as described above.

[7] = system: B16F10 melanoma cells; test: Subcutaneous B16F10 melanoma xenograft model; format: in vivo, mouse; settings: for tumor weight: FIG. 12B
Procedure: as §1, §2
To evaluate the therapeutic effect of an Axl inhibitor, bemcentinib, on melanoma, subcutaneous tumors of subcutaneous melanoma xenograft model of B16F10 cells in HPK1 knockout mice and wild type mice were treated with 10 mg/kg/day bemcentinib by intraperitoneal injection (IP) twice daily for 10 days. The tumor volumes (FIG. 12A) and tumor weight (FIG. 12B) were measured at 12 days after the completion of treatment.
Subcutaneous melanoma xenograft tumors of B16F10 cells were grown in wild-type mice, and treatment was performed as described above. Following treatment, tumors were excised from the mice at day 12 after completion of therapy and both tumor volume and tumor weight were measured.

Nc1nc(Nc2ccc3c(c2)CC[C@@H](N2CCCC2)CC3)nn1-c1cc2c(nn1)-c1ccccc1CCC2 [BGB324]
aggressiveness of pancreatic cancer [1]: inhibits the aggressiveness of pancreatic cancer | sensitivity of pancreatic cancer cells to gemcitabine [1]: sensitizes pancreatic cancer cells to gemcitabine | tumor immune microenvironment [1]: induces an immune stimulatory microenvironment

C#Cc1c(F)ccc2cc(O)cc(-c3ncc4c(N5CC6CCC(C5)N6)nc(OC[C@@]56CCCN5C[C@H](F)C6)nc4c3F)c12 [MRTX1133]
tumor growth [2]: shrink tumors or halt the growth | tumor weight ([3]; HPK1 knockout mice): significant decrease in tumor weight | tumor weight ([3]; wild type mice): slight decrease in tumor weight | response of tumor size shown by luminescence ([3]; wild-type mice versus HPK1 knockout mice, 25 mg/kg IP twice daily, imaged 7 days after treatment, FIG. 9): less responsive than the HPK1 knockout mice

Nc1nc(Nc2ccc3c(c2)CC[C@@H](N2CCCC2)CC3)nn1-c1cc2c(nn1)-c1ccccc1CCC2 [bemcentinib]
tumor growth (luminescence) ([4]; HPK1 knockout mice, FIG. 3B): inhibited the growth of the tumor | tumor volume (luminescence) ([4]; wild type mice, FIG. 3A): little to no decrease in the tumor volume | tumor volume ([5]; measured 15 days after completion of treatment, FIG. 6A): did not significantly decrease | tumor weight compared to control (in words) ([5]; weighed 12 days after completion, control about 0.6 grams, FIG. 7): only minimally reduced | tumor weight compared to control ([5]; weighed 15 days after completion of treatment, FIG. 6B): reduced the tumor weight to a small degree | CD3+ T cells and CD8+ T cells in the tumor microenvironment ([6]; HPK1 knockout mice, FIG. 4B): increased | infiltration of macrophages and myeloid suppressor cells ([6]; HPK1 knockout mice, tumor microenvironment, FIG. 4B): decreased the infiltration | number or function of B cells, CD3+ cells, CD4+ T cells, CD8+ T cells, CD11b+ cells, M-MDSC's, PMN-MDSC's, macrophages, neutrophils ([6]; wild-type mice, intra-tumoral, FIG. 4A): did not increase or decrease | tumor volume ([7]; HPK1 knockout mice, 10 mg/kg/day IP for 10 days, 12 days after completion, FIG. 12A): significant decrease | tumor weight ([7]; HPK1 knockout mice, 10 mg/kg/day IP for 10 days, 12 days after completion): significant decrease | tumor volume ([7]; wild type mice, 10 mg/kg/day IP for 10 days, 12 days after completion, FIG. 12A): slight decrease | tumor weight ([7]; wild type mice, 10 mg/kg/day IP for 10 days, 12 days after completion): slight decrease | tumor volume ([7]; wild-type mice, inhibitor comparison, treated 10 days, day 12 after completion, FIG. 13A): did not significantly decrease | tumor weight compared to control ([7]; wild-type mice, inhibitor comparison, treated 10 days, day 12 after completion, FIG. 13B): reduced the tumor weight to a small degree
